In paper PMC3578829, “A Small Molecule (Pluripotin) as a Tool for Studying Cancer Stem Cell Biology: Proof of Concept” (PLoS ONE, 2013):

Key:
[1] = test system: HCT-116; test: FACS analysis of putative CSC surface markers; type: cell-based; parameters: key to Change in Surface Marker Expression: Y indicates increased putative surface marker expression using the panel of 6 antibodies described in the Material and Methods
Source text: (§1) A BD FACsAria (BD Biosciences, San Jose, CA) was utilized for FACS analysis according to standard procedures. The instrument was equipped with a 488 nm 100 mW blue laser, a 638 nm 30 mW red laser, and a 405 nm 50 mW violet laser. The software package Diva 5.0 (BD Biosciences) was used for collection and analysis of data. The alignment of the three lasers in the flow cell was verified prior to running tumor cell samples by running Rainbow Beads (Spherotech). The six colors being used in the analysis were then compensated to account for spectral overlap emitted by the fluorochromes within each laser as well as across the lasers using a semi-automated process. This was done using compensation beads (BD Biosciences) that were coated with anti-mouse antibodies. The beads were incubated with each individual antibody used in the six-color panel for 15 min at room temperature. An unstained tube was also prepared. The unstained beads along with beads stained for each fluorochrome were run individually, recording 5000 events. The data was then run through the Diva software compensation matrices and the amount of “spectral bleed” from other fluorochromes into the fluorochrome of interest’s channel was determined and automatically compensated.
(§2) Treated and untreated cells (1×10^6 cells/condition) were harvested with trypsin EDTA (Invitrogen), washed, and then labeled with a six antibody cocktail (antibodies against the following epitopes: CD44, CD24, CD133, CD326, CD166, and P-glycoprotein in PBS without calcium and magnesium supplemented with 2% FBS) or appropriate isotype control antibodies. An unstained control was also prepared. The specific amounts needed for each labeled antibody were determined through titration studies. All cells were incubated with antibody for 15 minutes on ice and in the dark. The cells were then washed, resuspended in buffer, and analyzed on the FACsAria. For each experimental condition, the isotype control tube was evaluated first and 10,000 events were collected. Forward vs. side scatter gates were then established to eliminate likely debris. Further gating was determined for each conjugated isotype control antibody such that 1% of the population was considered a positive staining event. Cells stained with specific labeled antibodies were then evaluated and 10,000 events collected.

[2] = test system: HT29; test: FACS analysis of putative CSC surface markers; type: cell-based; parameters: key to Change in Surface Marker Expression: Y indicates increased putative surface marker expression using the panel of 6 antibodies described in the Material and Methods
Source text: as §1, §2

[3] = test system: SW-620; test: FACS analysis of putative CSC surface markers; type: cell-based; parameters: key to Change in Surface Marker Expression: Y indicates increased putative surface marker expression using the panel of 6 antibodies described in the Material and Methods
Source text: as §1, §2

[4] = test system: COLO 205; test: Cell growth after five day exposure; type: cell-based; details: 0.1 µM added day 1, harvested 5 days later
Method: (§3) Five day exposures were conducted.

[5] = test system: HCC-2998; test: Cell growth after five day exposure; type: cell-based; details: 0.1 µM added day 1, harvested 5 days later
Method: as §3

[6] = test system: HCT-116; test: Cell growth after five day exposure; type: cell-based; details: 0.1 µM added day 1, harvested 5 days later
Method: as §3

[7] = test system: HCT-15; test: Cell growth after five day exposure; type: cell-based; details: 0.1 µM added day 1, harvested 5 days later
Method: as §3

[8] = test system: HT29; test: Cell growth after five day exposure; type: cell-based; details: 0.1 µM added day 1, harvested 5 days later
Method: as §3

[9] = test system: KM12; test: Cell growth after five day exposure; type: cell-based; details: 0.1 µM added day 1, harvested 5 days later
Method: as §3

[10] = test system: SW-620; test: Cell growth after five day exposure; type: cell-based; details: 0.1 µM added day 1, harvested 5 days later
Method: as §3

[11] = test system: phospho-ERK1/2; test: Immunoblotting of phospho-ERK1/2 relative to total ERK1/2 in HT29; type: cell-based
Method: To determine if SC-1 reached the same target in the treated colon tumor lines, changes in abundance of phospho-ERK 1/2 (p-ERK) and total ERK1/2 protein were evaluated by immunoblotting at time points similar to those previously studied (Figure 3A). In the HT29 treated tumor line, phospho-ERK 1/2 protein levels (relative to total ERK1/2 protein levels) were decreased in 5 min (67±0.06% of control value), reached a trough at 1 hr (46±0.06% of control), and remained decreased during the remainder of the time course (4 hrs, 68±0.10% of control value). Thus, it is likely SC-1 is reaching its cognate molecular target in the HT29 tumor line.
(§4) Standard protein electrophoretic techniques were followed using previously published protocols. For these studies, the colon lines were cultured for 5 days with and without treatments, harvested with trypsin (0.25% trypsin 0.5 mM EDTA, Invitrogen), counted and lysed with a whole cell lysis buffer (10 mM Tris, 1.0 mM EDTA, 50 mM NaCl, 0.5% deoxycholate, 0.5% NP-40, 0.5% SDS, 1.0 mM PMSF, and aprotonin and a cocktail of phosphatase and protease inhibitors). The whole cell lysate was heated to 100°C for 10 min and then fractionated (1000 g, 10 min, 4°C). Protein concentrations were measured with the Pierce BCA Protein Assay. Twenty to 40 µg of protein lysate per lane were loaded onto 10% SDS polyacrylamide gels (Ready-Gels, Biorad) with Laemmli buffer. For immunoblotting, the primary antibodies were diluted in Tween/Tris wash buffer (0.1 mM Tris-HCl pH 7.5, 2.5% Tween-20, 150 mM NaCl) and 5% BSA or nonfat dry milk and incubated overnight at 4°C. Visualization of specific bands was accomplished with an alkaline phosphatase-labeled secondary anti-immunoglobulin antibody and the ECF Chemifluorescent reagent (GE Amersham). Pixel intensity of the imaged bands was measured using STORM (GE Amersham) and Image Quant Software. Normalization for loading was accomplished by reprobing with an anti-actin antibody, quantification of pixel intensity and data normalization.

[12] = test system: OCT4; test: Immunoblotting of OCT4 in HT29; type: cell-based; details: 0.1 µM SC-1
Method: as §4

[13] = target: RSK2 (Homo sapiens, UniProt P51812); test: In vitro kinase inhibition assay (modified Nguyen et al.); type: biochemical; details: RSK2 N-terminal domain; mean±SD, n = 5; concentration inhibiting 50% of control activity
Method: The RSK2 in vitro kinase inhibition assay utilized was a modification of protocols established by Nguyen et al.. Additional protocols that confirmed the results depicted in Figure 4 and evaluated kinase inhibitory activity in a random selection of protein kinases (Table 3) were conducted at Reaction Biology Corporation (Malvern, PA). This was a miniaturized ^33P-based screening assay.

[14] = five days of SC-1 treatment, mean±s.e.m., n = 3

Sequence of RSK2 (P51812 whole entry, species assumed, the tested form may be a part): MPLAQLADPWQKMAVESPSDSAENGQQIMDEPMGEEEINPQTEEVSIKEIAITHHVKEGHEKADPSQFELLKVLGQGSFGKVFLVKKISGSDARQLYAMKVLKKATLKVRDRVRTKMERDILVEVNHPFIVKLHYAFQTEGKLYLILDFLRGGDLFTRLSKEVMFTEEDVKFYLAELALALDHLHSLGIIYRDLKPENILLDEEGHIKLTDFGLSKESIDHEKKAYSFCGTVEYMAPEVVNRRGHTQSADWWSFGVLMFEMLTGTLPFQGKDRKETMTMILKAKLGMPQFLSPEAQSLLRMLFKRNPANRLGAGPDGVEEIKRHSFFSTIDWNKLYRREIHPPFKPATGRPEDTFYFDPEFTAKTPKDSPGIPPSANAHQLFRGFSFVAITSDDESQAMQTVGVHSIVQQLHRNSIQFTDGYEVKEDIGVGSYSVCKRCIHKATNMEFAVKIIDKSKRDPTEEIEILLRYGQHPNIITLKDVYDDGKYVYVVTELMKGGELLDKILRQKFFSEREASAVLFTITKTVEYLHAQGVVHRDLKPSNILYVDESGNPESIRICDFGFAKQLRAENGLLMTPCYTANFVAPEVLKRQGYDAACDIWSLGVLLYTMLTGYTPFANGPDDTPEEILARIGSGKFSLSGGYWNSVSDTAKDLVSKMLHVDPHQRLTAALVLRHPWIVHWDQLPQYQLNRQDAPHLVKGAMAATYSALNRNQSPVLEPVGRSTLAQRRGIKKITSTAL

In the case of `Cc1cc(Nc2ncc3c(n2)N(C)C(=O)N(c2cc(NC(=O)c4cccc(C(F)(F)F)c4)ccc2C)C3)n(C)n1` [SC-1], the “CD44+ CD24- subpopulation” value ([1]; after SC-1 treatment) is reported as “increased”, the “Change in Surface Marker Expression” value ([1]; marker CD44+ CD24−, summary of SC-1 effects) is reported as “Y (CD44+ CD24−)” and the “Cells expressing the CD133 glycosylated epitope” value [2, 14] is reported as 27.6±3.6 % positive. The “Change in Surface Marker Expression” value ([2]; marker CD133+, summary of SC-1 effects) was “Y (CD133+)”, the CD44 subpopulation [3, 14] was 74.1±13.4 % positive and the “Change in Surface Marker Expression” value ([3]; marker CD44+, summary of SC-1 effects) was “Y (CD44+)”. For the same compound, the “Fold Change from Initial Inocula” value [4] was 2, the “Fold Change from Initial Inocula” value [5] was 4 and the “Fold Change from Initial Inocula” value [6] was 31. For the same compound, the “Fold Change from Initial Inocula” value [7] was 19.8, the “Fold Change from Initial Inocula” value [8] was 17.5 and the “Fold Change from Initial Inocula” value [9] was 20.6. For the same compound, the “Fold Change from Initial Inocula” value [10] was 27.5, the “phospho-ERK 1/2 protein levels relative to total ERK1/2” value ([11]; 0.1 µM SC-1, 5 min) was 67±0.06 % of control and the “phospho-ERK 1/2 protein levels relative to total ERK1/2” value ([11]; 0.1 µM SC-1, 30 min) was 56±0.06 % of control. The “phospho-ERK 1/2 protein levels relative to total ERK1/2” value ([11]; 0.1 µM SC-1, 1 hr) was 46±0.06 % of control, the “phospho-ERK 1/2 protein levels relative to total ERK1/2” value ([11]; 0.1 µM SC-1, 4 hrs) was 68±0.10 % of control and the OCT4 protein expression [12] was “increased”. For the same compound, the EC50 [13] was 2500 ± 1800 nM.
